Laboratory results as given in US20130137975A1, “PET IMAGING” (OSI PHARMACEUTICALS, LLC, priority 2010, published 2013).
Like-named read-outs stand apart in the source and are kept apart here. Each block holds one compound with its values, some of them ahead of it.

Columns and labels:
[1] = tested on: H292 cells; assay: analysis for cell death by FACS; assay type: cell-based; conditions: 1.0-30 μM, compared to 0.05% DMSO controls
[2] = tested on: NCI H292 xenografts; assay: tumor growth of NCI H292 xenografts under daily treatment; assay type: in vivo, mice; conditions: daily treatment with 60 mg/kg
From the text: (§1) Palpable tumors were evident approximately 10 days post implant. When the tumors achieved a volume of approximately 300 mm^3, the animals were sorted, randomized, and placed on study.

[3] = tested on: pERK, pAKT, pS6, AS160; assay: Western blot of NCI-H292 tumor lysates in vivo, markers of altered glycolysis; set-up: species or system mice; conditions: 60 mg/kg
Experimental: as §1
Tumors were homogenized in 1 mL of TGH buffer per 200 mg of tissue on ice at 15,000 rpm until total homogenization was achieved. For analysis of IGF-1R and IR phosphorylation status, after pre-clearing by centrifugation (14,000 rpm/5 minutes), the lysate was incubated overnight at 4° C. with an antiphosphotyrosine antibody, and 30 μL Protein A-sephorase was then added and further incubated for an additional two hours. […] Antibodies were obtained from Santa Cruz Biotechnology.

[4] = target: IGF-1R (Homo sapiens, UniProt P08069); conditions: 1 μM OSI-906; panel of 116 kinases; cited from earlier work
[5] = target: T1, phospho-IGF1-R (Homo sapiens, UniProt P08069); assay: target inhibition in H292 tumor lysates in vivo (RTK array analysis); set-up: species or system mice; conditions: for inhibition at 60 mg/kg: NCI-H292, read-out: target inhibition of phospho-IGF1-R, single dose 60 mg/kg
T1 construct: endogenous in cells; host or cells: NCI-H292 cells grown as subcutaneous xenograft tumours in athymic nu/nu mice
From the text: All animal studies were under the approval of the Institutional Animal Care and Use Committee in an American Association for Accreditation of Laboratory Animal Care-accredited vivarium and in accordance with the Institute of Laboratory Animal Research (Guide for Care and Use of Laboratory Animals, NIH, Bethesda, Md.). Mice were 8-week-old athymic nu/nu mice (Charles Rivers) and were housed in clean specific pathogen free rooms in groups of four mice per cage. The mice were allowed access to sterile rodent chow and water ad libitum except when undergoing FDG-PET imaging, as noted. The H292 and H441 cells were harvested from T225 flasks at 90% confluency and implanted in the right thigh subcutaneously at a concentration of 1.0×10^7 cells per 100 μL of PBS inoculum. […] When the tumors achieved a volume of approximately 300 mm^3, the animals were sorted, randomized, and placed on study.
Tumor lysates were prepared according to the manufacturer's protocol (Proteome Profiler, R&D Systems). Briefly, tumor lysates were solubilized in NP-40 lysis buffer and re-suspended for 30 minutes at 2° C. with rocking. This preparation was centrifuged at 14,000×g for 5 minutes and transferred to a clean tube. Protein concentration was then determined by BCA assay. The lysate was then incubated with the Human Phospho-RTK array at 1000 μg overnight at 2° C. with rocking. The arrays were then washed, and incubated with freshly prepared detection antibody for two hours. After washing, the arrays were exposed to film for 0.5-3.0 minutes. The developed arrays were then quantitfied using a Kodak scanner and image analysis software.

[6] = tested on: NCI-H441 xenografts; assay: tumor growth of NCI-H441 xenografts under daily treatment; assay type: in vivo, mice; conditions: daily treatment with 60 mg/kg
From the text: as §1

[7] = tested on: H292 cells; assay: 3H-2-deoxyglucose uptake assay in H292 cells; assay type: cell-based; conditions: for 3H-2-deoxyglucose uptake (FIG. 16): 30 minute treatment, selected concentrations of each agent
Experimental: (§2) H292 and H441 cells were seeded in 12 well microtiter plates (Becton Dickinson) at 9.0×10^5 cells per well in normal glucose (11.1 mM) media for 6 hours (n=3 wells/group). The media was then changed to 5.5 mM glucose media and the cells were allowed to equilibrate overnight. On the day of the assay the media was again removed and replaced with 0.0 mM glucose (glucose starvation) for three hours. […] After a 5, 30, or 45-minute exposure the media was removed, the cells placed on ice and washed with ice-cold PBS buffer solution. The PBS was then removed and the cells were lysed in RIPA buffer for 15 minutes on ice. The lysates were harvested and counted in a Packard Liquid Scintillation counter.

[8] = tested on: pAKT, pS6, pERK, AS160; assay: Western blot of H292 in vitro cell lysates, downstream markers of altered glycolysis; assay type: cell-based
[9] = tested on: H292 xenografts; assay: 18F-FDG-PET imaging of H292 xenografts; assay type: in vivo, athymic nu/nu mice; conditions: 60 mg/kg oral; 2 and 4 hours post dosing
Experimental: (§3) Palpable tumors were evident approximately 10 days post implant. […] Mice were fasted from food 12 hours prior to imaging with ^18F-FDG (VUIIS Cyclotron). […] After dosing, the mice were kept isolated in a chamber at a constant temperature of 30° C. using a warm air circulating device (Harvard Apparatus). […] After 30 minutes, PET imaging was performed using a Concord small animal PET imager. Images were then collected and reconstructed. Analyses of separate regions of interest (ROI) drawn over the area of the tumors (and muscle) were conducted and glucose uptake was calculated as % injected dose per gram of tissue against known phantom standards.

[10] = target: T2, pIGF-1R (Homo sapiens, UniProt P08069); assay: Western blot of NCI-H292 cells, target inhibition; assay type: cell-based
T2 construct: endogenous in cells; host or cells: NCI-H292

[11] = tested on: NCI-H441 cells; assay: 3H-2-deoxyglucose uptake assay in H441 cells; assay type: cell-based; conditions: 30 minutes after treatment; higher doses than in NCI H292 cells
Experimental: as §2

[12] = tested on: H441 xenografts; assay: 18F-FDG-PET imaging of H441 xenografts; assay type: in vivo, athymic nu/nu mice; conditions: 60 mg/kg oral; any time point evaluated (2, 4, 24 hours)
Experimental: as §3

[13] = tested on: H292 tumors; assay: 18F-FDG biodistribution study, H292 tumors; assay type: in vivo, athymic nu/nu mice; conditions: 60 mg/kg oral; between 2 and 8 hours post treatment; scintillation counting
Experimental: Palpable tumors were evident approximately 10 days post implant. […] Mice were fasted for 12-16 hours prior to dosing with the radiopharmaceutical. […] Mice were kept isolated and under a warming lamp at a temperature of approximately 30° C. One hour before the desired sacrifice time, the mice were dosed with 4-6 μCi of ^18F-FDG via the lateral tail vein. The mice were sacrificed 60 minutes later via CO2 asphyxiation, and selected tissues removed, rinsed, weighed and then placed into scintillation tubes. The samples were counted using a Cobra II Scintillation Counter and the % injected dose per gram of tissue calculated against prepared standards.

T2 sequence (P08069 31-1367): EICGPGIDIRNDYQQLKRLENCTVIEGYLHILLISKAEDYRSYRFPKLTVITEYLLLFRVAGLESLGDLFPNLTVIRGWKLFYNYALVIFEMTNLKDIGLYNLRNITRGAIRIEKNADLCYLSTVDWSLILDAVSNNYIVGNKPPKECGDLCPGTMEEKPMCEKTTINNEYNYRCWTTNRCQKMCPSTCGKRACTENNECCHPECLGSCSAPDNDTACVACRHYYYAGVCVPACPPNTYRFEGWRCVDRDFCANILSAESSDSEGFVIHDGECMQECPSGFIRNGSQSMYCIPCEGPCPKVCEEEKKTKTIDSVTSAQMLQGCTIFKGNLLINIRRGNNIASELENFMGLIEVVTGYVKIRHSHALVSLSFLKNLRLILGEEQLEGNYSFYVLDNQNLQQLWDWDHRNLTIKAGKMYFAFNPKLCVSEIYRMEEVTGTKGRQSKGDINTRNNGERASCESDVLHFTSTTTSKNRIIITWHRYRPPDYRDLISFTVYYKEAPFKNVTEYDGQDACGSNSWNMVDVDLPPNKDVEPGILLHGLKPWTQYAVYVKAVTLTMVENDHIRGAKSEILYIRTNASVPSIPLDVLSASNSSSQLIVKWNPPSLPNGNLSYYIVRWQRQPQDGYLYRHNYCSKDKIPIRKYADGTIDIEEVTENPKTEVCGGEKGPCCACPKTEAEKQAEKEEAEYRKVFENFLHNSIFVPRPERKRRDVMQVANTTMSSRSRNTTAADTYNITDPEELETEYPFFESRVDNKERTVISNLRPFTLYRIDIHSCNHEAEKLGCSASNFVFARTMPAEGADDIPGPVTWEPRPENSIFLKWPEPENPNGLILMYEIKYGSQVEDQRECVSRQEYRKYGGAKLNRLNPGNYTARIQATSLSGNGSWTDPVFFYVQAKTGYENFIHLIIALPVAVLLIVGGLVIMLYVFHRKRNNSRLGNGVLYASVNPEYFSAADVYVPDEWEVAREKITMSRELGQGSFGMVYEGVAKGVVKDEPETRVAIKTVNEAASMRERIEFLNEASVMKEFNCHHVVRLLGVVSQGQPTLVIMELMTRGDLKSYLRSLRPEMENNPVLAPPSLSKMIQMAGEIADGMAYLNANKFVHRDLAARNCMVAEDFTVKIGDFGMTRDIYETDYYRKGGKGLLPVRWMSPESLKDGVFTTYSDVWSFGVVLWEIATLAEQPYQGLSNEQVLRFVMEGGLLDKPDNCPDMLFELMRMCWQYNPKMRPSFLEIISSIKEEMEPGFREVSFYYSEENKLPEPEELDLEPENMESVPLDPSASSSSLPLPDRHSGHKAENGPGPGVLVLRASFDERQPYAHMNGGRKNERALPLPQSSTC
T1 sequence (P08069 31-1367): as above
IGF-1R, sequence (P08069 31-1367): as above

inhibition at 60 mg/kg ([5]; 2 and 4 hours post treatment): ~85%
inhibition at 60 mg/kg ([5]; 24 hours): 70%
target inhibition of pIGF-1R, RTK array (FIGS. 17 and 18) ([5]; single 60 mg/kg treatment, 2, 4 and 24 hours): strong target inhibition
pIGF-1R ([10]; 30 minutes of exposure, all doses (FIG. 12)): target inhibition
pIGF-1R, time course ([10]; 2 hours, all concentrations (10 nM, 100 nM, 500 nM)): reduction
SMILES: CC1(O)CC(c2nc(-c3ccc4ccc(-c5ccccc5)nc4c3)c3c(N)nccn23)C1 (stereo not drawn) [OSI-906, cis-3-[8-amino-1-(2-phenyl-quinolin-7-yl)-imidazo[1,5-a]pyrazin-3-yl]-1-methylcyclobutanol]
cell death by FACS analysis [1]: no significant cell death
tumor growth compared to vehicle controls [2]: significant tumor growth inhibition
phospho-AKT, phospho-S6, phospho-ERK and AS160 in tumor lysates ([3]; 4 hours post treatment, compared to untreated control lysates): decreased signal intensity
pERK, pAKT, pS6 in tumor lysates ([3]; 24 hours post dose): return to baseline levels
inhibition of IGF-1R [4]: greater than 50%
tumor growth compared to vehicle-treated cohort [6]: do not exhibit a difference in tumor growth
3H-2-deoxyglucose uptake (FIG. 16) [7]: rapid inhibition
3H-2-deoxyglucose uptake, onset ([7]; as early as five minutes post treatment, increasing concentrations): significant decrease
signal intensity of phospho-AKT, phospho-S6 and AS160 bands ([8]; 0.0 μM-30 μM, 30 minutes after drug treatment (FIG. 11)): dose dependent response with respect to decreased signal intensity
downstream targets pERK, pAKT, pS6, AS160 ([8]; 30 minutes of exposure (FIG. 12)): inhibition of downstream targets
18F-FDG uptake (PET SUV) [9]: significant decrease
pIGF-1R, time course ([10]; through 24 hours, 10 nM, 100 nM, 500 nM): inhibition remains through 24 hours in all but the lowest, 10 nM concentration
3H-2-deoxyglucose uptake (FIG. 13) [11]: dose dependent decrease
18F-FDG uptake (PET SUV) [12]: do not demonstrate a significant change
decrease of 18F-FDG uptake in tumor samples compared to vehicle control animals [13]: 20-50%

SMILES: C=C1[C@@H](C)[C@H]2[C@H](Cc3ccccc3)NC(=O)[C@]23OC(=O)/C=C/[C@H](O)CCC[C@@H](C)C/C=C/[C@H]3[C@@H]1O [Cytochalasin B, reference compound]
3H-2-deoxyglucose uptake, positive control ([7]; 2.5-10 μM, 30 minutes post treatment (FIG. 3)): significantly inhibits uptake

SMILES: C#Cc1cccc(Nc2ncnc3cc(OCCOC)c(OCCOC)cc23)c1 [erlotinib, reference compound]
3H-2-deoxyglucose uptake (FIG. 16) [7]: rapid inhibition
